Measurements from patent publication US20080280890A1, “HYDROXYLAMINE COMPOUNDS AND METHODS OF THEIR USE” (priority 2007, published 2008).

Tests used:
[1] = tested on: Angiogenesis in CAM model; test: Neovascularization on the CAM (chick chorioallantoic membrane model of angiogenesis); type: in vivo, chicken; details: 30 ug; for Percent inhibition of angiogenesis in CAM model at 30 ug: unit assumed
Method: In vivo neovascularization was examined by the method previously described by Auerbach et al. (J. Dev. Biol. 41:391-394 (1974)). Ten-day old chicken embryos were purchased from Spafas, Inc. (Preston, Conn.) and were incubated at 37° C. with 55% relative humidity. In the dark, with the aid of a candling lamp, a small hole was punctured in the shell concealing the air sac with a hypodermic needle. A second hole was punctured in the shell on the broadside of the egg directly over an […] portion of the embryonic membrane, as observed during candling. An artificial air sac was created beneath the second hole by applying gentle vacuum to the first hole using a small rubber squeeze bulb. The vacuum caused the chorioallantoic membrane (CAM) to separate from the shell.
A window, approximately 1.0 cm^2, was cut in the shell over the dropped CAM with the use of a small crafts grinding wheel (Dremel, Division of Emerson Electric Company Racine, Wis.). The window allowed direct access to the underlying CAM.
A pro-angiogenic agent was added to induce new blood vessel branches on the CAM of 10-day old embryos. Filter disks of #1 filter paper (Whatman International, United Kingdom) were punched using a small puncher and were soaked in 3 mg/mL cortisone acetate (Sigma, St. Louis, Mo.) in a solution (95% ethanol and water). The disks were subsequently air dried under sterile conditions. The disks were then suspended in PBS (Phosphate Buffered Saline) and placed on growing CAMs. Filters treated with TP-H (TEMPOL-H) or TEMPOL and/or H2O2 or TP-H and/or bFGF or VEGF were placed on the first day of the 3-day incubation.
For inducing angiogenesis, sterile filter disks were saturated with bFGF (1 μg/ml) (Life Technologies, Gaithersburg, Md.) or other pro-angiogenesis factors and control disks were saturated with PBS without Calcium and Magnesium. […]
Using sterile forceps one filter/CAM was placed from the window. The window was sealed with Highland brand transparent tape.
After 24-48 hr, 10-25 ul of test agent was injected intravenously or added topically into the CAM membrane. Eight-Ten eggs/treatment group were used.
CAM tissue directly beneath filter disk was harvested from embryos treated 48 hours prior with compound or control. Tissues were washed three times with PBS. Sections were placed in a 35-mm petri dish (Nalge Nunc, Rochester, N.Y.) and examined under a SV6 stereomicroscope (Karl Zeiss, Thornwood, N.Y.) at 50× magnification.
CAM sections from Petri dish were examined using SV6 stereomicroscope (Karl Zeiss) at 50× magnification. Digital images of CAM sections from Petri dish were collected using a 3-CCD color video camera system (Toshiba America, New York, N.Y.). These images were analyzed using Image-Pro Plus software (Media Cybernetics, Silver Spring, Md.).
The number of branch points in blood vessels within the circular region superimposed to the area of a filter disk was counted for each section. After incubation at 37° C. with 55% relative humidity for 3 days, the CAM tissue directly beneath each filter disk was resected from control and treated CAM samples. Tissues were washed three times with PBS. Sections were placed in a 35-mm Petri dish (Nalge Nunc; Rochester, N.Y.) and were examined under a SV6 stereomicroscope (Karl Zeiss; Thornwood, N.Y.) at 50× magnification. Digital images of CAM sections adjacent to filters were collected using a 3-CCD color video camera system (Toshiba America; New York, N.Y.) and analyzed with the Image-Pro Plus software (Media Cybernetics; Silver Spring, Md.).
The number of vessel branch points contained in a circular region equal to the area of a filter disk was counted for each section. Percent inhibition data are expressed as the quotient of the experimental value minus the negative control value divided by the difference between the positive control value and the negative control value. […]

lipid peroxidation = test: Lipid peroxidation inhibition (method of Ohkawa); type: biochemical
[2] = tested on: Human neuroblastoma SKN-SH cells, resistant to doxorubicin; test: Chemoresistance: cancer cell viability (MTT) in presence or absence of doxorubicin; type: cell-based; details: compound 50 ug/mL, MTT
Excerpt: A method for evaluating a compound's propensity to overcome cancer cell chemoresistance is described in “Caspase Inhibition Switches Doxorubicin-Induced Apoptosis To Senescence”, Abdelhadi Rebbaa, Xin Zheng, Pauline M Chou and Bernard L Mirkin, Oncogene (2003) 22, 2805-2811. Resistant human cancer cells to doxorubicin were selected by stepwise exposure to drug concentrations ranging from 10^−9 M-10^−6 M over 3 months. They were then subjected to treatment with the doxorubicin alone or in combination with hydroxylamine compounds 1-12, 16, 20, and 21 (Table 4). The cells were incubated with the drugs for 72 hours, and cell viability was measured by the MTT assay. Additionally, molecular pathways that might be associated with increased chemo-responsiveness with these compounds were investigated. p Cancer Cell Viability Data for certain hydroxylamines in the presence or absence of Doxorubicin is listed in Table 4.
A method for evaluating a compound's propensity to overcome cancer cell chemoresistance is described in “Caspase Inhibition Switches Doxorubicin-Induced Apoptosis To Senescence”, Abdelhadi Rebbaa, Xin Zheng, Pauline M Chou and Bernard L Mirkin, Oncogene (2003) 22, 2805-2811. Human neuroblastoma SKN-SH cells (ATCC Cat. No. HTB-11) were cultured in Dulbecco's Modified Eagles Medium (DMEM; Gibco, Grand Island, N.Y.) supplemented with 10% fetal bovine serum (FBS; Sigma-Aldrich, St. Louis, Mo.) at 37° C. in a 95% Air/5% CO2 atmosphere. Resistant human cancer cells to doxorubicin were selected by stepwise exposure to drug concentrations ranging from 10^−9M-10^−6M over 3 months. They were then subjected to treatment with the doxorubicin alone or in combination with hydroxylamine compounds. The cells were incubated with the drugs for 72 hours, and cell viability was measured by the MTT assay. This consists of adding 10 μl/well of MTT (5 mg/ml solution) and incubation for 4 h at 37° C. The precipitate formed is then solubilized by addition of 100 μl of HCL 0.5 N/Isopropanol and incubation for 15 hours at 37° C. The optical density is measured at 570 nm and cell survival is estimated by comparison to untreated cells. Each point represents 4 wells data represent average ± SE. Additionally, molecular pathways that might be associated with increased chemo-responsiveness with these compounds were investigated.
Cytotoxic activity of doxorubicin and hydroxylamine analogs were quantitatively determined by a colorimetric assay utilizing 3-(4,5-dimethyl-2-thiazolyl) 2,5-diphenyl tetrazolium bromide (MTT; Sigma-Aldrich, St. Louis, Mo.). Briefly, cells were seeded at 10^4 cells/well in 96-well plates and maintained in culture for 24 hours at 37° C. in DMEM supplemented with 10% FBS. Drugs were added to designated wells and cells were incubated for […], following which MTT (10 μL of 5 mg/ml solution) was added to each 100 μl well and incubated for 4 hours at 37° C. The cells were solubilized by incubation with 100 μl of HCl 0.5N in isopropanol for 15 hours at 37° C. The optical density of this solution was measured at 570 nm and the percentage of viable cells estimated by comparison with untreated control cells.

Structure (SMILES): COc1cc2c(cc1O)CC[C@@H]1[C@@H]2CC[C@]2(C)[C@@H](O)CC[C@@H]12 [2-Methoxy estradiol, reference compound]
- CAM data % Inhibition [1]: 92.3%
- Lipid Peroxidation % Inhibition (lipid peroxidation; 10 uM): 92.3%

Structure (SMILES): CC(C)(C)/[N+]([O-])=C/c1ccccc1 [Compound 17, α-phenyl-t-butyl nitrone, reference compound]
- Lipid Peroxidation % Inhibition (lipid peroxidation; 10 uM): 0.4%

Structure (SMILES): CC1(C)C=CCC(C)(C)N1O.Cl [Compound 35, 1-hydroxy-1,2,3,6-tetrahydro-2,2,6,6-tetramethylpyridine]
- Mean OD (×10^−3), cancer cell viability ([2]; Dox. 10^−6 M present (+)): 352.75 ×10^−3
- Mean OD (×10^−3), cancer cell viability ([2]; Dox. absent (−)): 1128.00 ×10^−3
- % Lipid Peroxidation inhibition (at 1 uM) (lipid peroxidation; 1 uM): 64.4%

Structure (SMILES): CC1(C)COC(=O)C(C)(C)N1O.Cl [Compound 39, N-Hydroxyl-3,3,5,5-tetramethylmorpholin-2-one]
- Mean OD (×10^−3), cancer cell viability ([2]; Dox. 10^−6 M present (+)): 311.00 ×10^−3
- Mean OD (×10^−3), cancer cell viability ([2]; Dox. absent (−)): 1201.00 ×10^−3
- melting point: 145 °C (dec.)
- Percent inhibition of angiogenesis in CAM model at 30 ug [1]: 96.9%

Structure (SMILES): CCCCC1(O)CC(C)(C)N(O)C(C)(C)C1.Cl [Compound 41, 1,4-dihydroxy-4-n-butyl-2,2,6,6-tetramethylpiperidine]
- Mean OD (×10^−3), cancer cell viability ([2]; Dox. 10^−6 M present (+)): 261.25 ×10^−3
- Mean OD (×10^−3), cancer cell viability ([2]; Dox. absent (−)): 824.75 ×10^−3
- melting point: 187 °C (dec.)
- Percent inhibition of angiogenesis in CAM model at 30 ug [1]: 84.4%

Structure (SMILES): CC1(C)CC(O)(c2ccccc2)CC(C)(C)N1O.Cl [Compound 42, 1,4-Dihydroxy-4-phenyl-2,2,6,6-tetrmethylpiperidine]
- Mean OD (×10^−3), cancer cell viability ([2]; Dox. 10^−6 M present (+)): 311.00 ×10^−3
- Mean OD (×10^−3), cancer cell viability ([2]; Dox. absent (−)): 1068.67 ×10^−3
- melting point: 201.7 °C (dec.)
- Percent inhibition of angiogenesis in CAM model at 30 ug [1]: 61.9%

Structure (SMILES): CC1(C)CC(OCc2ccccc2)CC(C)(C)N1O.Cl [Compound 43, 4-Benzyloxy-1-hydroxy-2,2,6,6-tetramethylpiperidine]
- Mean OD (×10^−3), cancer cell viability ([2]; Dox. 10^−6 M present (+)): 324.67 ×10^−3
- Mean OD (×10^−3), cancer cell viability ([2]; Dox. absent (−)): 1159.00 ×10^−3
- melting point: 181.5 °C (dec.)
- Percent inhibition of angiogenesis in CAM model at 30 ug [1]: 85.5%

Structure (SMILES): CC1(C)CC(Oc2nsnc2-c2ccccc2)CC(C)(C)N1O.Cl [Compound 44, 1-hydroxy-4-(4-phenyl-1,2,5-thiadiazol-3-yloxy)-2,2,6,6-tetramethylpiperidine]
- Mean OD (×10^−3), cancer cell viability ([2]; Dox. 10^−6 M present (+)): 13.25 ×10^−3
- Mean OD (×10^−3), cancer cell viability ([2]; Dox. absent (−)): 23.00 ×10^−3
- melting point: 220.8 °C (dec.)
- Percent inhibition of angiogenesis in CAM model at 30 ug [1]: 71.2%

Structure (SMILES): CC1(C)CC(O)(c2ccc(F)cc2)CC(C)(C)N1O.Cl [Compound 57, 4-(4-Fluorophenyl)-1-hydroxyl-2,2,6,6-tetramethylpiperidin-4-ol]
- Mean OD (×10^−3), cancer cell viability ([2]; Dox. 10^−6 M present (+)): 426.25 ×10^−3
- Mean OD (×10^−3), cancer cell viability ([2]; Dox. absent (−)): 1078.50 ×10^−3
- melting point: 220 °C (dec.)
- Percent inhibition of angiogenesis in CAM model at 30 ug [1]: 100%

Structure (SMILES): COc1cc(CNC2CC(C)(C)N(O)C(C)(C)C2)cc(OC)c1OC.Cl.Cl [Compound 58, N-(3,4,5-trimethoxybenzyl)-1-hydroxy-2,2,6,6-tetramethylpiperidin-4-amine]
- Mean OD (×10^−3), cancer cell viability ([2]; Dox. 10^−6 M present (+)): 291.50 ×10^−3
- Mean OD (×10^−3), cancer cell viability ([2]; Dox. absent (−)): 1207.00 ×10^−3
- melting point: 181 °C
- Percent inhibition of angiogenesis in CAM model at 30 ug [1]: 39%

Structure (SMILES): O=C(O)c1cc(C(=O)O)c2c(n1)C(=O)C(=O)c1cc(C(=O)O)[nH]c1-2 [PQQ, pyrroloquinoline quinone, reference compound]
- Lipid Peroxidation % Inhibition (lipid peroxidation; 100 uM): 93.7%
